{"source": "patent US11571484B2", "about": "“Compositions that target tumor-associated macrophages and methods of use therefor” (Sanford Burnham Prebys Medical Discovery Institute, priority 2017, dated 2023)", "key": {"sentinel lymph node": {"system": "sentinel lymph node", "test": "Ex vivo organ imaging after i.p. injection in 4T1 tumor-bearing mice", "parameters": "species or system mouse", "settings": "30 nmoles i.p., 2 h, signal normalized to tissue weight, ratio tissue/kidney", "procedure": "A, FAM-UNO and FAM-LyP-1 were injected i.p. at doses of 30 nmoles in 4T1 tumor-bearing mice. Peptides were allowed to circulate for two h, mice were then sacrificed, and the organs were collected and imaged with the live imaging system MX3 Art Optix in the FITC channel with laser excitation. B, The signal in each organ was quantified, normalized to the tissue weight and the ratio tissue/kidney was graphed in bar graph. LyP-1 is a peptide that targets p32 protein on the surface of activated macrophages. Results from n=3 mice. Bars of panel B represent mean+SEM."}, "MEMs in MCF-7 tumors": {"system": "MEMs in MCF-7 tumors", "test": "Free peptide homing and immunofluorescence in the orthotopic MCF-7 breast tumor model", "format": "in vivo, mouse", "settings": "30 nmoles i.v., 2 h", "procedure": "A, Thirty nmoles of FAM-UNO were injected intravenously in mice bearing MCF-7 tumors, 21 days after orthotopic inoculation of 5×10^6 cells. […] All images were taken with the same imaging conditions. Scale bar: 100 μm and 50 μm (blow up). […] The tumor tissue from panel A was analyzed by immunofluorescence using rabbit anti-FAM (green), rat anti-HLA ABC (red) and counterstained with DAPI (blue). Scale bar: 50 μm. C, MCF-7 tumors are leaky. Tumor sections were immunostained for endogenous mouse IgG and counterstained with DAPI using the same staining and imaging conditions as in FIG. 17. Scale bar: 100 μm. Representative images from n=3 mice.\nMice were used for homing studies two weeks later."}, "[1]": {"target": "T1, recombinant human macrophage mannose receptor rhMMR/CD206 (Homo sapiens, UniProt P22897)", "T1 construct": "purchased R&D Systems 2534-MR-050", "T1 sequence (P22897 19-1456)": "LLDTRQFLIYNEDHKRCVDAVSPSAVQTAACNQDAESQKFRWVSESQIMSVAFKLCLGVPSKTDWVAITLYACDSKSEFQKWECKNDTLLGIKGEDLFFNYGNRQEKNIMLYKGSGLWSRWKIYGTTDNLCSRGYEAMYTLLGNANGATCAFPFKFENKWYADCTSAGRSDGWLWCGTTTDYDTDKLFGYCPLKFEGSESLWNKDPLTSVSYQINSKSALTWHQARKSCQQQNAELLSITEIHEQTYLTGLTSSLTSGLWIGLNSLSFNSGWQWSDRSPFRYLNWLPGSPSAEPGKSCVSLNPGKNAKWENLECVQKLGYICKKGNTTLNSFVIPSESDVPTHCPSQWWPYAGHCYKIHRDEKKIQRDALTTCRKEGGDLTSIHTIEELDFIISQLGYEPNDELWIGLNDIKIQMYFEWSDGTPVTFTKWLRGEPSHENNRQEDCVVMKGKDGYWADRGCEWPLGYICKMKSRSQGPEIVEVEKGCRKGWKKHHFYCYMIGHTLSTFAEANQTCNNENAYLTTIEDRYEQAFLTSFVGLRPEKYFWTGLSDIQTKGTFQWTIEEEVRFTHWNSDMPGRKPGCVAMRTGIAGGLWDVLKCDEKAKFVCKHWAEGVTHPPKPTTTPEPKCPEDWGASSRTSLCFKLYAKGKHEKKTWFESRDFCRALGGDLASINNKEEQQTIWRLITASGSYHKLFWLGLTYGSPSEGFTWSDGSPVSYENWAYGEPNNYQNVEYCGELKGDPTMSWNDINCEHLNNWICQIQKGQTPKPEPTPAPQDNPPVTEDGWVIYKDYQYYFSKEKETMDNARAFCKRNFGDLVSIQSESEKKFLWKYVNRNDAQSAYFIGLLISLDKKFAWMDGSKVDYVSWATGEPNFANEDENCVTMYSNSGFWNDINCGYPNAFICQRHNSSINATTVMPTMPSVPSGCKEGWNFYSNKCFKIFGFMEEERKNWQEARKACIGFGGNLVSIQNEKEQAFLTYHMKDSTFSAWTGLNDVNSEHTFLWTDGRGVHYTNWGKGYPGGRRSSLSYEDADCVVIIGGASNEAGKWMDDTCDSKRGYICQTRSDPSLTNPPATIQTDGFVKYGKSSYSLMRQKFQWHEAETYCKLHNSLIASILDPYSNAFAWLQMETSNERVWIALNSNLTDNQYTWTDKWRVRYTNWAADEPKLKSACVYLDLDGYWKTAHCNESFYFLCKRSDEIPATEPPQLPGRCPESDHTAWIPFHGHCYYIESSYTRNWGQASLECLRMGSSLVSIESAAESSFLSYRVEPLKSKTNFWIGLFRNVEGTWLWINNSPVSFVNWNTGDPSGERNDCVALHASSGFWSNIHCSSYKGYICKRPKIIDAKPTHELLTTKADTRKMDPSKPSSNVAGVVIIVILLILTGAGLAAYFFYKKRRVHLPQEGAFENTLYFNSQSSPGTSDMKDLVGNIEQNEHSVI", "test": "Fluorescence anisotropy assay with human recombinant CD206", "format": "binding", "settings": "100 nM FAM peptide, 0.4 μM protein", "procedure": "Time course of fluorescence anisotropy of FAM-mUNO during incubation with human recombinant CD206 (black curve, 3001) or with CD163 (red curve, 3003). The concentration of FAM-mUNO was 100 nM and the concentration of CD206 and CD163 was […]. The anisotropy for the FAM-mUNO alone is shown in the green curve 3004.\nFluorescence anisotropy was also carried out using recombinant human macrophage mannose receptor rhMMR/CD206 to determine whether UNO peptide interactions with mouse CD206 carried over to human CD206. […]\nIn all experiments, FA signal measurements were done under pseudo first-order conditions with 50 nM singly labelled FAM peptides and 1 μM proteins. […] Assays were carried out in kinetic mode in a total volume of 30 μl at 25° C. on the PHERAstar (BMG Labtech, Germany) microplate reader using an optical module with excitation and emission filters of 485 nm (slit 10 nm) and 520 nm (slit 10 nm), respectively. […] The background fluorescence (receptor and buffer components in the absence of fluorescent ligand) was subtracted independently from all intensity channels. FA signals at time t after initiation of binding reaction was calculated as parameters r(t) from the equation: […]"}}, "note": "Ends that are not written are not given here. FAM = 5(6)-carboxyfluorescein; Ahx = NCCCCCC(=O)O"}
{"substance": "FAM-UNO: FAM-labeled UNO peptide CSPGAKVRC (SEQ ID NO: 1); 5(6)-carboxyfluorescein with 6-aminohexanoic acid spacer at the N-terminus ({FAM-Ahx}-CSPGAKVRC; cysteine pairing not given here)", "values": [{"measurement": "accumulation of FAM in the sentinel lymph node versus FAM-LyP-1", "setting": "sentinel lymph node", "value": "significantly higher accumulation of the FAM in the sentinel lymph node"}, {"measurement": "accumulation in MEMs", "setting": "MEMs in MCF-7 tumors", "value": "selectively accumulated in MEMs"}, {"measurement": "targeting of tumor cells of human origin (HLA ABC+)", "setting": "MEMs in MCF-7 tumors", "value": "did not target the tumor cells of human origin"}, {"measurement": "change in fluorescence anisotropy (interaction) with human recombinant CD206", "setting": "[1]", "value": "did not cause a change in the fluorescence anisotropy"}]}
